What was measured:
[1] = bexarotene-treated patients, two SPIRIT trials; cited from earlier work
MDA-PR cells = assay: Growth and resensitization of paclitaxel-resistant MDA-MB-231 cells; assay type: cell-based, human; conditions: 30 nM paclitaxel (3 days on, 7 days off) in absence or presence of 1 μM Targretin (10 days on), 3 months
Description: (§1) The human breast cancer cell line MDA-MB-231 was obtained from the American Type Culture Collection (Manassas, Va., USA), and MDA-MB-231 cells were routinely cultured in RPMI-1640 supplemented with 10% fetal bovine serum and 2 mM glutamine in 5% CO2. Bexarotene was synthesized at Ligand Pharmaceuticals Inc. (San Diego, Calif., USA), and paclitaxel was purchased from Sigma Chemicals (St. Louis, Mo., USA). The protocol for establishment of paclitaxel-resistant MDA-MB-231 cells and resensitization to paclitaxel by bexarotene treatment was described previously (5). Briefly, MDA-MB-231 cells were exposed to regimens on a 10-day cycle: a 3-day treatment with 30 nM paclitaxel followed by a 7-day exposure to control medium. […] These MDA-PR cells were then treated with the combination of 30 nM paclitaxel (3 days on and 7 days off) in the absence or presence of 1 μM Targretin (10 days on) in a new 10-day cycle for 3 months.

LCP1 = assay: RNA microarray of LCP1 expression in paclitaxel-resistant MDA-MB-231 (MDA-PR) cells; assay type: cell-based, human; conditions: for effect on LCP1 expression (in words): paclitaxel alone, or bexarotene together with paclitaxel
Description: as §1

[2] = tested on: non small cell lung cancer; assay: Kaplan-Meier survival analysis of bexarotene-treated patients in the SPIRIT I and II phase III trials; assay type: in vivo, human (patients); conditions: bexarotene plus chemotherapy, control arm 284 days
Description: Bexarotene (also called Targretin, LGD1069) is a selective modulator of retinoid X receptors (RXRs) approved for treating refractory advanced-stage cutaneous T-cell lymphoma (1, 2). […] Consequently, two large phase III trials (SPIRIT I and SPIRIT II) were conducted to evaluate the efficacy and safety of standard chemotherapy agents with or without bexarotene as a first-line therapy in treating advanced non small cell lung cancer. […] A known side-effect of retinoid therapy is the elevation of serum lipids, and the majority of the bexarotene treated patients in the two SPIRIT trials developed hypertriglyceridemia, as expected. […] This intriguing correlation between survival and triglyceride level induced by bexarotene observed in both SPIRIT trials is illustrated in FIG. 1A. […] These findings prompted the search for biomarkers which can predict bexarotene sensitivity and identify a subgroup of non small cell lung cancer patients whose survival could be prolonged by bexarotene treatment.
FIG. 1. Sub-population analysis and study design. […] Kaplan-Meier survival estimates in patients gave median survivals of 170 days, 263 days, and 371 days for these three groups, respectively. […] B. Overview of genome-wide association study design. In Stage I discovery phase, 150 samples (74 cases and 76 controls) were genotyped using the Affymetrix GeneChip 500K Mapping Array Set (Nsp array+Sty array) containing 500,000 SNPs following the Affymetrix standard protocol. 255 SNPs were then selected for stage II study. In Stage II, 400 samples were individually genotyped using the 255 Sequenom iPLEX SNP assays, including 147 samples (minus one case and two controls) used in the Stage I for the Verification group and 253 new samples for the Replication group. In the Replication group, 129 samples were included from the patients with middle level of triglyceride percentile (HTG Mid).

[3] = tested on: non small cell lung cancer; conditions: addition of bexarotene to chemotherapy, first-line, advanced non small cell lung cancer, both phase III trials; cited from earlier work

SMILES | patients who developed NCI grade 3 or higher hypertriglyceridemia [1] | effect on growth / paclitaxel sensitivity of MDA-PR cells (MDA-PR cells) | LCP1 expression up-regulation compared to MDA-PR cells (LCP1; 30 nM paclitaxel/1 μM bexarotene for 3 months, p-value=6.86×10^−6) | effect on LCP1 expression (in words) (LCP1) | median survival (Kaplan-Meier estimate) ([2]; 'HTG Hi' group: 67% to maximum triglyceride) | median survival (Kaplan-Meier estimate) ([2]; 'HTG Lo' group: triglyceride up to 33% of maximum level) | median survival (Kaplan-Meier estimate) ([2]; 'HTG Mid' group: middle third (33% to 67%)) | overall survival in the intent-to-treat population [3]
C=C(c1ccc(C(=O)O)cc1)c1cc2c(cc1C)C(C)(C)CCC2(C)C [bexarotene] | 30-40% | re-sensitized to paclitaxel | 3.8 fold | significantly up-regulated | 371 days | 170 days | 263 days | did not improve overall survival
CC(=O)O[C@H]1C(=O)[C@@]2(C)[C@H]([C@H](OC(=O)c3ccccc3)[C@]3(O)C[C@H](OC(=O)[C@H](O)[C@@H](NC(=O)c4ccccc4)c4ccccc4)C(C)=C1C3(C)C)[C@]1(OC(C)=O)CO[C@@H]1C[C@@H]2O [paclitaxel] |  | no effect |  | no effect |  |  |  | 
